Results published in patent US20160199338A1, “COMPOSITIONS CONTAINING MONOACETYLDIACYLGLYCEROL COMPOUND AS AN ACTIVE INGREDIENT FOR PREVENTING OR TREATING RHEUMATOID ARTHRITIS” (ENZYCHEM LIFESCIENCES CORPORATION, priority 2013, published 2016).

What was measured:
[1] = GLP toxicity test; cited from earlier work
[2] = test system: arthritis induced by bovine type II collagen in male DBA/1J mouse; experiment: Collagen-induced arthritis animal model; format: in vivo; conditions: for histopathological arthritis score of knee joint: knee joint of both hind legs, vs negative control (FIG. 6); for histopathological arthritis score of knee joint / concentration of IL-6 in serum: EC-18 125, 500, 2,000 mg/kg oral, Remicade 20 mg/kg intraperitoneal, methotrexate 2.5 mg/kg oral; for concentration of IL-6 in serum: serum collected at day of tissue excision, once a day for five weeks, vs negative control (FIG. 4)
Experimental: For arthritis animal model experiment, arthritis was induced in male DBA/1J mouse by administering bovine type II collagen to the mouse. Efficacy of EC-18 for treating (or improving) arthritis was evaluated by repeatedly administering EC-18 to the mouse orally. For comparison, Remicade (positive control 1) was administered intraperitoneally and methotrexate (positive control 2) was administered orally. The experiment included seven groups: normal group (G1), negative control (G2), 125 mg/kg, 500 mg/kg and 2,000 mg/kg of EC-18 (EC-18 treatment groups, G3, G4, G5), 20 mg/kg of Remicade (Positive control 1, G6) and 2.5 mg/kg of Methotrexate (Positive control 2, G7). Each group consists of 10 mice. Olive oil was administered to normal group (G1) and negative control group (G2) as an excipient. In all groups, administration was made once a day for five weeks (a total of 35 administrations). Remicade (G6) was administered intraperitoneally, whereas EC-18, methotrexate and olive oil were administered orally in force. For all groups except normal Group (G1), arthritis was induced by immunizing animals twice with bovine type II collagen and complete Freund's adjuvant or incomplete Freund's adjuvant emulsion. During the observation period, common arthritis symptoms were observed once a day, weigh measured once a week, arthritic score evaluation made with the naked eye twice a week, foot thickness measured twice a week.

| Molecule | toxicity [1] | histopathological arthritis score of knee joint [2] | concentration of IL-6 in serum [2] | crushing of cartilage and increase of Pannus (stained arthritic tissue) ([2]; EC-18 500 mg/kg (G4), Remicade 20 mg/kg (G6), vs negative control (FIGS. 7 and 8)) |
| --- | --- | --- | --- | --- |
| CCCCC/C=C\C/C=C\CCCCCCCC(=O)OC(COC(C)=O)COC(=O)CCCCCCCCCCCCCCC (stereo not drawn) [EC-18, 1-palmitoyl-2-linoleoyl-3-acetylglycerol] | no toxicity | – | – | – |
| CN(Cc1cnc2nc(N)nc(N)c2n1)c1ccc(C(=O)N[C@@H](CCC(=O)O)C(=O)O)cc1 [Methothrexate, methotrexate] | – | reduced | reduced | – |
| Remicade: positive control 1, administered intraperitoneally at 20 mg/kg | – | reduced | reduced | reduced |
